Source: patent US4576956A, “Iodo propargylaminoisoxazoles as fungicides” (Shionogi & Co., Ltd., priority 1982, dated 1986)
Values after ≈ are worked out from the molar mass of the structure shown.

Columns and labels:
Botrytis cinerea = experiment: Test B-1 Control Test of Botrytis Rot (Gray Mold) of Cucumber; type: in vivo; conditions: 500 ppm, 3 days
Method: Test B-1 Control Test of Botrytis Rot (Gray Mold) of Cucumber Seedlings of Cucumber (Cultivar: Matsukaze) were planted and grown in soil in vinyl-chloride cups of 9 cm in diameter in a greenhouse. […] The treated cucumbers were kept for 3 days in a greenhouse (20° C.) and then disease degrees were counted. Standard of Evaluation […] (2) A slight soaked lesion on the reverse of the test leaf . . . × 5 (3) A slight fade of the leaf . . . × 10 (4) The inoculated part was faded and the fading expanded erosively . . . × 20 [formula]

Mycoplasma hyopneumonia = experiment: growth inhibition of a swine enzootic pneumonia-causative bacteria; type: cell-based; conditions: one range for the listed compounds, read-out: concentration inhibiting the growth
Mycoplasma gallisepticum = experiment: minimum inhibition concentration; type: cell-based; conditions: Mycoplasmoides gallisepticum, one range for the listed compounds
Rhizoctonia solani = experiment: Test B-6 Control Test to Damping-off of Cucumber; type: in vivo; conditions: R*, 500 ppm, soil drench, 1 week
Method: (§1) Test B-6 Control Test to Damping-off of Cucumber
(§2) Twenty cucumber seeds were sown into sterilized soil (150 ml) in a pot of 9 cm in diameter. The fungi, Phythium aphanidermatum, Fusarium oxysporum and Rhizoctonia solani were cultured on a wheat bran medium for 5 days and an additional 2 days thereafter were mixed with sterilized soil. The surface of the sown spots was covered with the above culture medium. A test solution (30 ml) at a prescribed concentration was poured into each pot. The pots were kept in a greenhouse (28° C.) for 1 week in the case of Pythium and Rhizoctonia and for 2 weeks in the case of Fusarium.
(§3) The disease degree was observed and percent disease degree was calculated by the following formula: […]
(§4) (1) No germination . . . x 4
(§5) (2) Germed but withered . . . x 3
(§6) (3) Disordered in 1/3 or more . . . x 2
(§7) (4) Disordered in less than 1/3 . . . x 1
(§8) (5) Not damaged . . . x 0 [formula]
(§9) The percent disease control was calculated in the same manner as in Test B-1.

Pythium aphanidermatum = experiment: Test B-6 Control Test to Damping-off of Cucumber; type: in vivo; conditions: P*, 500 ppm, soil drench, 1 week
Method: as §1, §2, §3, §4, §5, §6, §7, §8, §9

Fusarium oxysporum = experiment: Test B-6 Control Test to Damping-off of Cucumber; type: in vivo; conditions: F*, 500 ppm, soil drench, 2 weeks
Method: as §1, §2, §3, §4, §5, §6, §7, §8, §9

Sclerotinia sclerotiorum = experiment: Test B-2 Control Test to Sclerotinia Rot of Cucumber; type: in vivo; conditions: 48 h, 2 days, read-out: Percent Disease Control
Method: Test B-2 Control Test to Sclerotinia Rot of Cucumber
Cucumber seedlings were sprayed with 2.5 ml of a test solution in the same manner as in Test B-1. Afterthe spraying, the seedlings were kept at 25°-26° C. for a day and three disks of 4 mm in diameter containing mycelia of Sclerotinia sclerotiorum were put on a primary leaf and then 10 μl of PD broth were dropped on the disks. The treated seedlings were kept ina greenhouse (20° C.) for 2 days and then the diameters of the disease spots were measured by a pair of slide callipers. [formula]

Aspergillus fumigatus = experiment: Test A-1 Anti-fungal Activity (MIC), microwell dilution; type: cell-based; conditions: in vitro, 1×10^5 cells/ml
Method: (§10) Test A-1 Anti-fungal Activity (MIC)
(§11) The concentration of the test cells was 1×10^5 cells/ml and the activity was measured by a microwell dilution method. The structure of the test compounds is referred to in the Examples.

Candida albicans M-9 = experiment: as above; type: cell-based; conditions: M9, C. albicans M-9, in vitro, 1×10^5 cells/ml
Method: as §10, §11

Trichophyton asteroides [1] = experiment: as above; type: cell-based; conditions: T. asteroides, in vitro, 1×10^5 cells/ml
Method: as §10
The following results (Table 1) were obtained in an anti-fungal activity test in vitro against Aspergillus fumigatus, Candida albicans M-9 and Trichophyton asteroides. The concentration of the test cells was 1×10^5 cells/ml and the activity was measured by a microwell dilution method. The structure of the test compounds is referred to in the Examples.

[2] = test system: Colletotrichum lagenarium; experiment: Test B-4 Control Test to Anthracnose of Cucumber; type: in vivo; conditions: 500 ppm, 3 + 3 days
Method: Test B-4 Control Test to Anthracnose of Cucumber Each cucumber seedling was sprayed with 2.5 ml of a test solution in the same manner as in Test B-1. After the spraying, the seedlings were kept at 25°-26° C. for a day and were inoculated with five filter-paper disks of 6 mm in diameter saturated with a conidium suspension of Colletotrichum lagenarium at a concentration of 1×10^6 conidia/ml. The treated seedlings were kept in a greenhouse (25° C.) for 3 days and further kept at below 25° C. for 3 days. Standard of Evaluation The same as noted in Test B-3.

Pyricularia oryzae = type: in vivo; conditions: 500 ppm; rice plant blast, 24 hours + 7 days
Trichophyton asteroides [3] = experiment: Test A-2 Anti-fungal Activity (MCC); conditions: 168 h, read-out: MCC (Minimal Cidal Concentration)
Method: (§12) Some MCC (Minimal Cidal Concentration) values (Table 1) were obtained against Candida albicans and Trichophyton asteroides by the following method. After the MIC value was obtained by the microwell method, a loopful amount was picked up from the medium in which no growth of the fungus was observed, inoculated into a Subrouraud's glucose agar medium and incubated at 28° C. for 2 days in the case of C. albicans and for 7 days in the case of T. asteroides.

Candida albicans = experiment: Test A-2 Anti-fungal Activity (MCC); conditions: 48 h, read-out: MCC (Minimal Cidal Concentration)
Method: as §12

Sphaerotheca fuliginea = experiment: Test B-5 Control Test to Powdery Mildew of Cucumber; type: in vivo; conditions: 500 ppm, 2 weeks
Method: Test B-5 Control Test to Powdery Mildew of Cucumber
Each cucumber seedling was sprayed with 2.5 ml of a test solution. The seedlings were kept at 25°-26° C. for 1 day after the spraying and then sprayed with a conidium (1×10^5 conidia/ml) of Sphaerotheca fuliginea in a 100 ppm spreader solution (containing 20% polyoxyethylene glycol alkyl phenol ether and 12% lignin sulfonate) at a rate of 25 ml/20 cups.
The seedlings were kept in a greenhouse (25° C.) for 2 weeks and then observed.
Standard of Evaluation [formula]
as §9

[4] = test system: Pseudoperonospora cubensis; experiment: Test B-3 Control Test to Downy Mildew of Cucumber; type: in vivo; conditions: 500 ppm, 7 days
Method: Test B-3 Control Test to Downy Mildew of Cucumber
Each cucumber seedling was sprayed with 2.5 ml of a test solution in the same manner as in Test B-1. After the spraying, the seedlings were kept at 25°-26° C. for a day and a zoosporangium suspension or Pseudoperonospora cubensis was inoculated at a rate of five spots per leaf on a primary leaf. The treated seedlings were kept in a greenhouse for 7 days and then observed.
(2) Slight disease at the inoculation spot . . . X5
(3) A disease spot in the same size as the inoculation spot (without spreading) . . . x10
(4) A disease spot larger than the inoculation spot . . . x20
Disease degree and percent disease control were calculated in the same manner as in Test B-1.

Row | Compound | Percent Disease Control (Botrytis cinerea) | Percent Disease Control (Rhizoctonia solani) | Percent Disease Control (Pythium aphanidermatum) | Percent Disease Control (Fusarium oxysporum) | pest or weed control at 500 ppm (Sclerotinia sclerotiorum) | MIC (Aspergillus fumigatus) | MIC (Candida albicans M-9) | MIC (Trichophyton asteroides [1]) | Percent Disease Control (Pyricularia oryzae) | further results
1 | CN(CC#CI)c1onc2c1CCCC2 [Comp. 15] | 100% |  |  |  |  |  |  |  |  | MIC (Mycoplasma hyopneumonia): 3.13 to 12.5 µg/mL (≈ 9.9 to 39.5 µM)
2 | Cc1noc(NCC#CI)c1C [Comp. 19] |  | 100% | 100% | 78% | 100% | 3.1 µg/mL (≈ 11.2 µM) | 0.8 µg/mL (≈ 2.9 µM) | 0.8 µg/mL (≈ 2.9 µM) | 100% | MIC (Mycoplasma gallisepticum): 6.25 to 12.5 µg/mL (≈ 22.6 to 45.3 µM); Percent Disease Control [2]: 100%
3 | Cc1noc(N(C)CC#CI)c1C [Comp. 20] |  | 100% | 100% | 57% | 100% | 0.8 µg/mL (≈ 2.76 µM) | 0.8 µg/mL (≈ 2.76 µM) | 0.8 µg/mL (≈ 2.76 µM) | 100% | MFC (Trichophyton asteroides [3]): 3.1 µg/mL (≈ 10.7 µM); MIC (Mycoplasma gallisepticum): 6.25 to 12.5 µg/mL (≈ 21.5 to 43.1 µM); MFC (Candida albicans): 50 µg/mL (≈ 172 µM)
4 | CCN(CC#CI)c1onc(C)c1C [Comp. 21] |  |  |  |  |  | 1.6 µg/mL (≈ 5.26 µM) | 1.6 µg/mL (≈ 5.26 µM) | 1.6 µg/mL (≈ 5.26 µM) |  | 
5 | Cc1noc(N(C)CC#CI)c1Cl [Comp. 24] | 100% | 100% | 100% | 93% | 100% | 0.8 µg/mL (≈ 2.58 µM) | 0.2 µg/mL (≈ 0.644 µM) | 0.4 µg/mL (≈ 1.29 µM) |  | MFC (Trichophyton asteroides [3]): 3.1 µg/mL (≈ 9.98 µM); MFC (Candida albicans): 12.5 µg/mL (≈ 40.3 µM); Percent Disease Control (Sphaerotheca fuliginea): 100%
6 | CC(C)c1noc(N(C)CC#CI)c1Cl [Comp. 26] |  |  |  |  |  | 50 µg/mL (≈ 148 µM) | 6.3 µg/mL (≈ 18.6 µM) | 1.6 µg/mL (≈ 4.73 µM) |  | Percent Disease Control [4]: 100%; Percent Disease Control (Sphaerotheca fuliginea): 100%; Percent Disease Control [2]: 100%
7 | CN(CC#CI)c1onc(-c2ccccc2)c1Cl [Comp. 27] |  |  |  |  |  |  |  |  | 100% | 
8 | Clc1ccccc1C(c1ccccc1)(c1ccccc1)n1ccnc1 [Ref. Comp., Clotrimazole, reference compound] |  |  |  |  |  | 12.5 µg/mL (≈ 36.2 µM) | 6.3 µg/mL (≈ 18.3 µM) | 0.2 µg/mL (≈ 0.58 µM) |  | MFC (Trichophyton asteroides [3]): 6.3 µg/mL (≈ 18.3 µM); MFC (Candida albicans): > 100 µg/mL
9 | Cc1cc(N(C)CC#CI)no1 [compound 32, 3-(N-methyl-N-3-iodo-2-propynyl)amino-5-methylisoxazole] | 100% | 100% | 100% | 50% | 100% | 1.6 µg/mL (≈ 5.8 µM) | 1.6 µg/mL (≈ 5.8 µM) | 3.1 µg/mL (≈ 11.2 µM) | 98% | Percent Disease Control (Sphaerotheca fuliginea): 100%
10 | Cc1onc(N(C)CC#CI)c1Cl [compound 33, 3-(N-methyl-N-3-iodo-2-propynyl)amino-4-chloro-5-methylisoxazole] |  |  |  |  | 100% | 3.1 µg/mL (≈ 9.98 µM) | 1.6 µg/mL (≈ 5.15 µM) | 0.8 µg/mL (≈ 2.58 µM) |  | Percent Disease Control [4]: 100%
11 | Cc1onc(NCC#CI)c1Cl [compound 34, 3-(3-iodo-2-propynyl)-amino-4-chloro-5-methylisoxazole] | 100% |  |  |  |  |  |  |  |  | Percent Disease Control [4]: 100%; MIC (Mycoplasma hyopneumonia): 3.13 to 12.5 µg/mL (≈ 10.6 to 42.2 µM); Percent Disease Control [2]: 100%
12 | Cc1c(N(C)CC#CI)noc1-c1ccccc1 [compound 36] |  |  |  |  |  |  |  |  | 90% | 
13 | Cc1noc(C)c1NCC#CI [compound 38, 3,5-dimethyl-4-(3-iodo-2-propynylamino)isoxazole] |  |  |  |  |  | 3.1 µg/mL (≈ 11.2 µM) | 0.8 µg/mL (≈ 2.9 µM) | 0.8 µg/mL (≈ 2.9 µM) |  | 
